Columns and labels:
FGFR2 (406-821) = FGFR2 (406-821) (Homo sapiens (Human), UniProt P21802); assay: In vitro biochemical assay for FGFR2
FGFR3 (411-806) = FGFR3 (411-806) (Homo sapiens (Human), UniProt P22607); assay: In vitro biochemical assay for FGFR3
FGFR1 (407-822) = FGFR1 (407-822) (Homo sapiens (Human), UniProt P11362); assay: In vitro biochemical assay for FGFR1
[1] = system: HuH-7 hepatocellular carcinoma cells; assay: CellTiter Glo (CTG) Assay; conditions: Homo sapiens, Huh-7, 72 h, read-out: HUH7 proliferation (nM) CTG
[2] = target: FGFR4 (GST-FGFR4(388-802)) (Homo sapiens (Human), UniProt P22455); assay: In-vitro biochemical kinase assay for FGFR4 (Caliper microfluidic mobility shift); conditions: read-out: Biochemical FGFR4 IC50
Tel-FGFR4 = Tel-FGFR4 (Homo sapiens (Human), UniProt P22455); assay: In vitro cellular kinase assay for FGFR4 (BaF3-Tel-FGFR4 cells, MSD capture ELISA of tyrosine phosphorylation); type: cell-based; conditions: BaF3-Tel-FGFR4 cells, 1 hour incubation; read-out: Cellular BaF3 FGFR4 IC50
Tel-FGFR4, sequence (P22455 other isoform, or with tags, fused parts or gaps): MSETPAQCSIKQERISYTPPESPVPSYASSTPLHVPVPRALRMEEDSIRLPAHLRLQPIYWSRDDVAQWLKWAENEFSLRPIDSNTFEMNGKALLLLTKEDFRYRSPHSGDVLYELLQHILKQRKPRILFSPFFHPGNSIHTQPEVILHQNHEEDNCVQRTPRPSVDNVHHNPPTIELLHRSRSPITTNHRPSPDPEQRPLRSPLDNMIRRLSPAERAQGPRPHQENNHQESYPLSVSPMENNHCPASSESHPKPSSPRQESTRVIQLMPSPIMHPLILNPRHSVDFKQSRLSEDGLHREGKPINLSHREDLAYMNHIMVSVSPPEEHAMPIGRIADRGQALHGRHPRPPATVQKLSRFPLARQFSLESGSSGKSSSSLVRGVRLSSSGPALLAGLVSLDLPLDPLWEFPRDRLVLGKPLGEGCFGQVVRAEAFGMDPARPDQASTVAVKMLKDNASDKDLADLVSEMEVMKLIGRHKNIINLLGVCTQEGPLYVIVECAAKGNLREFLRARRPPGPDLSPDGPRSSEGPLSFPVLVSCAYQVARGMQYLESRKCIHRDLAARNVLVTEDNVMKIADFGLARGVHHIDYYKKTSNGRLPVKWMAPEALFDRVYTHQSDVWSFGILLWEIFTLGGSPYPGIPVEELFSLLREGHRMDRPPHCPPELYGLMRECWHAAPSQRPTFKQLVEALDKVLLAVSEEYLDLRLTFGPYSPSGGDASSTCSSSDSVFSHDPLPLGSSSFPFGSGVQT

FGFR3 (411-806), sequence (P22607 411-806): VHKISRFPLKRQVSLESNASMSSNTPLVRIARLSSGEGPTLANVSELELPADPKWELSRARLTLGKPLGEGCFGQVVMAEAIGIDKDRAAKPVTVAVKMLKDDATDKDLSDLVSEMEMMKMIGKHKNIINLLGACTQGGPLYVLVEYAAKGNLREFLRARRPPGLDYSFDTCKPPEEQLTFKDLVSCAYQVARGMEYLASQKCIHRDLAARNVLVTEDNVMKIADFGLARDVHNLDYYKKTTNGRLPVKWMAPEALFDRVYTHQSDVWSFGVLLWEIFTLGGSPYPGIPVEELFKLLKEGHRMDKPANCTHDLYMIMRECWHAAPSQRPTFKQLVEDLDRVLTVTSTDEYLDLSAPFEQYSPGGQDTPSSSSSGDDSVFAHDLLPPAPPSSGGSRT
FGFR1 (407-822), sequence (P11362 407-822): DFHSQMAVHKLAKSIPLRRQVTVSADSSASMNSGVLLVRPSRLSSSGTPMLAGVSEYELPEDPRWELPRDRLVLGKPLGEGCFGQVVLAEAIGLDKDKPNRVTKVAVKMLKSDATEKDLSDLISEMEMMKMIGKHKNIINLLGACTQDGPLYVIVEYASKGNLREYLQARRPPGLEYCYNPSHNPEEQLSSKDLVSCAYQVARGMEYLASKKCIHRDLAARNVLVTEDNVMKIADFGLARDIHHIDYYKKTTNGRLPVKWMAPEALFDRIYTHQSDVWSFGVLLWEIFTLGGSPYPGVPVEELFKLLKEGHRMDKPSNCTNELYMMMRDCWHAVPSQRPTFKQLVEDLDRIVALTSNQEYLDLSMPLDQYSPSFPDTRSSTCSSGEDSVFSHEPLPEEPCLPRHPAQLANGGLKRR
FGFR4 (GST-FGFR4(388-802)), sequence (P22455 388-802): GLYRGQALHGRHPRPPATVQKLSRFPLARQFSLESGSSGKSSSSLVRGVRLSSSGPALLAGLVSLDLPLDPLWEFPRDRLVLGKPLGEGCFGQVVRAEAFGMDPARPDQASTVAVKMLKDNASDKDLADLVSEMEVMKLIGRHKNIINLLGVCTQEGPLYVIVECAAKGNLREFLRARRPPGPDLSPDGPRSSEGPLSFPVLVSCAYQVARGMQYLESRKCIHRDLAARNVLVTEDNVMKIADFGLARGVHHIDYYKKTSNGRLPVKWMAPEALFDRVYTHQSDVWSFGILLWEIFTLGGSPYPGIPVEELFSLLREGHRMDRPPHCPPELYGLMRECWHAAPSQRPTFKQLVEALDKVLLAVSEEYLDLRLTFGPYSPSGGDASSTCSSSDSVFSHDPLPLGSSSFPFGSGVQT
FGFR2 (406-821), sequence (P21802 406-821): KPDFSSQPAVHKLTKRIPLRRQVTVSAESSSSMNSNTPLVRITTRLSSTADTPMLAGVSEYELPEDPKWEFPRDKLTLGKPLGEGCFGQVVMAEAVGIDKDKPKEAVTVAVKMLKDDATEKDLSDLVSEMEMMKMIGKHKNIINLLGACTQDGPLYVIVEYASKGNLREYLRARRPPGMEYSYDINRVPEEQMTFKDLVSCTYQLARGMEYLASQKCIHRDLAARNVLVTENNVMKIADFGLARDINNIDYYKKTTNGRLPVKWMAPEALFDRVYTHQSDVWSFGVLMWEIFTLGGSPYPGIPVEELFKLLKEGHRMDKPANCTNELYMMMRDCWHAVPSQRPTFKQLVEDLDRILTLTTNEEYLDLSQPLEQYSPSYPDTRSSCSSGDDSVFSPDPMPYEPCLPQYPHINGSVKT

Structure (SMILES) | IC50 (FGFR2 (406-821)) [nM] | IC50 (FGFR3 (411-806)) [nM] | IC50 (FGFR1 (407-822)) [nM] | IC50 [1] [nM] | IC50 [2] [nM] | IC50 (Tel-FGFR4) [nM]
COCCNc1cc(NC(=O)N2CCCc3cc(CN4CC[C@H](O)C4=O)c(C=O)nc32)ncc1C#N [Example 100, (S)-N-(5-cyano-4-((2-methoxyethyl)amino)pyridin-2-yl)-7-formyl-6-((3-hydroxy-2-oxopyrrolidin-1-yl)methyl)-3,4-dihydro-1,8-naphthyridine-1(2H)-carboxamide] | – | – | – | 23.5 | 0.9 | 5.3
CCOc1cc(NC(=O)N2CCCc3ccc(C=O)nc32)ncc1C#N [Example 19, N-(5-cyano-4-ethoxypyridin-2-yl)-7-formyl-3,4-dihydro-1,8-naphthyridine-1(2H)-carboxamide] | > 10000 | > 10000 | > 10000 | – | – | –
N#Cc1ccc(NC(=O)N2CCCc3ccc(C=O)nc32)nc1 [Example 3, N-(5-cyanopyridin-2-yl)-7-formyl-3,4-dihydro-1,8-naphthyridine-1(2H)-carboxamide] | > 10000 | > 10000 | > 10000 | – | – | –
N#Cc1cnc(NC(=O)N2CCCc3cc(CO)c(C=O)nc32)cc1OCC1CCCCO1 (racemic) [Example 44, N-(5-cyano-4-((tetrahydro-2H-pyran-2-yl)methoxy)pyridin-2-yl)-7-formyl-6-(hydroxymethyl)-3,4-dihydro-1,8-naphthyridine-1(2H)-carboxamide] | – | – | – | 1230 | 8.1 | 31.3
N#Cc1cnc(NC(=O)N2CCCc3cc(CO)c(C=O)nc32)cc1N[C@@H]1[C@H]2CC[C@H](C2)[C@@H]1CO (racemic) [Example 65, N-(5-cyano-4-(((1S*,2R*,3S*,4R*)-3-(hydroxymethyl)bicyclo[2.2.1]heptan-2-yl)amino)pyridin-2-yl)-7-formyl-6-(hydroxymethyl)-3,4-dihydro-1,8-naphthyridine-1(2H)-carboxamide] | – | – | – | 65 | 0.8 | 14.6
CCc1cc(NC(=O)N2CCCc3cc(C=O)c(C=O)nc32)ncc1C#N [Example 106, N-(5-cyano-4-ethylpyridin-2-yl)-6,7-diformyl-3,4-dihydro-1,8-naphthyridine-1(2H)-carboxamide] | – | – | – | > 3000 | 95 | 2530
CC(=O)N(C)Cc1cc2c(nc1C=O)N(C(=O)Nc1cc(NCCOC(F)(F)F)c(C#N)cn1)CCC2 [Example 188, N-(5-cyano-4-((2-(trifluoromethoxy)ethyl)amino)pyridin-2-yl)-7-formyl-6-((N-methylacetamido)methyl)-3,4-dihydro-1,8-naphthyridine-1(2H)-carboxamide] | – | – | – | 59 | 0.4 | 5.2
COCCNc1cc(NC(=O)N2CCCc3cc(CN(CCN(C)C)S(C)(=O)=O)c(C=O)nc32)ncc1C#N [Example 144, N-(5-cyano-4-((2-methoxyethyl)amino)pyridin-2-yl)-6-((N-(2-(dimethylamino)ethyl)methylsulfonamido)methyl)-7-formyl-3,4-dihydro-1,8-naphthyridine-1(2H)-carboxamide] | – | – | – | 504 | 2.3 | 18.5
N#Cc1cnc(NC(=O)N2CCCc3ccc(C=O)nc32)cn1 [Example 12, N-(5-cyanopyrazin-2-yl)-7-formyl-3,4-dihydro-1,8-naphthyridine-1(2H)-carboxamide] | > 10000 | > 10000 | > 10000 | – | – | –
N#Cc1cnc(NC(=O)N2CCCc3ccc(C=O)nc32)nc1 [Example 8, N-(5-cyanopyrimidin-2-yl)-7-formyl-3,4-dihydro-1,8-naphthyridine-1(2H)-carboxamide] | > 10000 | > 10000 | > 10000 | – | – | –
COC[C@@H](Oc1cc(NC(=O)N2CCCc3cc(C(F)F)c(C=O)nc32)ncc1C#N)C(F)(F)F [Example 173, (R)-N-(5-cyano-4-((1,1,1-trifluoro-3-methoxypropan-2-yl)oxy)pyridin-2-yl)-6-(difluoromethyl)-7-formyl-3,4-dihydro-1,8-naphthyridine-1(2H)-carboxamide] | – | – | – | 1360 | 33 | 142
COCCNc1cc(NC(=O)N2CCCc3cc(CN4C[C@@H](C)N[C@@H](C)C4)c(C=O)nc32)ncc1C#N [Example 242, N-(5-cyano-4-((2-methoxyethyl)amino)pyridin-2-yl)-6-(((3R,5S)-3,5-dimethylpiperazin-1-yl)methyl)-7-formyl-3,4-dihydro-1,8-naphthyridine-1(2H)-carboxamide] | – | – | – | 1780 | 2.6 | 27
COCCNc1cc(NC(=O)N2CCCc3cc(-n4ccnc4)c(C=O)nc32)ncc1C#N [Example 254, N-(5-cyano-4-((2-methoxyethyl)amino)pyridin-2-yl)-7-formyl-6-(1H-imidazol-1-yl)-3,4-dihydro-1,8-naphthyridine-1(2H)-carboxamide] | – | – | – | 1160 | 1.1 | 44.5
COC(C)CNc1cc(NC(=O)N2CCCc3cc(CO)c(C=O)nc32)ncc1C#N (racemic) [Example 57, N-(5-cyano-4-((2-methoxypropyl)amino)pyridin-2-yl)-7-formyl-6-(hydroxymethyl)-3,4-dihydro-1,8-naphthyridine-1(2H)-carboxamide] | – | – | – | 436 | 3.9 | 11.3
CC(C)n1cnc2cnc(NC(=O)N3CCCc4cc(CN5CCCC5=O)c(C=O)nc43)cc21 [Example 220, 7-formyl-N-(1-isopropyl-1H-imidazo[4,5-c]pyridin-6-yl)-6-((2-oxopyrrolidin-1-yl)methyl)-3,4-dihydro-1,8-naphthyridine-1(2H)-carboxamide] | – | – | – | > 3000 | 96 | 94
COCCNc1cc(NC(=O)N2CCCc3cc(CN4CC[C@@H](O)C4=O)c(C=O)nc32)ncc1C#N [Example 105, (R)-N-(5-cyano-4-((2-methoxyethyl)amino)pyridin-2-yl)-7-formyl-6-((3-hydroxy-2-oxopyrrolidin-1-yl)methyl)-3,4-dihydro-1,8-naphthyridine-1(2H)-carboxamide] | – | – | – | 32.5 | 0.8 | 6.2
N#Cc1cnc(NC(=O)N2CCCc3cc(CN4CCCC4=O)c(C=O)nc32)cc1OCC1CCNC(=O)C1 (racemic) [Example 225, N-(5-cyano-4-((2-oxopiperidin-4-yl)methoxy)pyridin-2-yl)-7-formyl-6-((2-oxopyrrolidin-1-yl)methyl)-3,4-dihydro-1,8-naphthyridine-1(2H)-carboxamide] | – | – | – | 1000 | 5.7 | 76.5
COCCNc1cc(NC(=O)N2CCCc3cc(N4CCOC4=O)c(C=O)nc32)ncc1C#N [Example 263, N-(5-cyano-4-((2-methoxyethyl)amino)pyridin-2-yl)-7-formyl-6-(2-oxooxazolidin-3-yl)-3,4-dihydro-1,8-naphthyridine-1(2H)-carboxamide] | – | – | – | 894 | 0.2 | 11

The next lines start with results.

IC50 (FGFR2 (406-821)) [nM] | IC50 (FGFR3 (411-806)) [nM] | IC50 (FGFR1 (407-822)) [nM] | Structure (SMILES) | IC50 [1] [nM] | IC50 [2] [nM] | IC50 (Tel-FGFR4) [nM]
> 10000 | > 10000 | > 10000 | CN1CC[C@@H](Oc2cc(NC(=O)N3CCCc4cc(CO)c(C=O)nc43)ncc2C#N)C1 [Example 54, (R)-N-(5-cyano-4-((1-methylpyrrolidin-3-yl)oxy)pyridin-2-yl)-7-formyl-6-(hydroxymethyl)-3,4-dihydro-1,8-naphthyridine-1(2H)-carboxamide] | – | – | –
> 10000 | > 10000 | > 10000 | COCCNc1cc(NC(=O)N2CCCc3cc(CN4CCOCC4=O)c(C=O)nc32)ncc1C#N [Example 98, N-(5-cyano-4-((2-methoxyethyl)amino)pyridin-2-yl)-7-formyl-6-((3-oxomorpholino)methyl)-3,4-dihydro-1,8-naphthyridine-1(2H)-carboxamide] | – | – | –
> 10000 | > 10000 | > 10000 | N#Cc1ccc(NC(=O)N2CCCCc3ccc(C=O)nc32)nc1 [Example 201, N-(5-cyanopyridin-2-yl)-2-formyl-7,8-dihydro-5H-pyrido[2,3-b]azepine-9(6H)-carboxamide] | – | – | –
> 10000 | > 10000 | > 10000 | CC(C)Oc1cc(NC(=O)N2CCc3ccc(C=O)nc32)ncc1C#N [Example 234, N-(5-cyano-4-isopropoxypyridin-2-yl)-6-formyl-2,3-dihydro-1H-pyrrolo[2,3-b]pyridine-1-carboxamide] | – | – | –
> 10000 | > 10000 | > 10000 | CN(C)CCOc1cc(NC(=O)N2CCCc3ccc(C=O)nc32)ncc1C#N [Example 38, N-(5-cyano-4-(2-(dimethylamino)ethoxy)pyridin-2-yl)-7-formyl-3,4-dihydro-1,8-naphthyridine-1(2H)-carboxamide] | – | – | –
> 10000 | > 10000 | > 10000 | N#Cc1cnc(NC(=O)N2CCCc3cc(CO)c(C=O)nc32)cc1NC1CCOC1 (racemic) [Example 56, N-(5-cyano-4-((tetrahydrofuran-3-yl)amino)pyridin-2-yl)-7-formyl-6-(hydroxymethyl)-3,4-dihydro-1,8-naphthyridine-1(2H)-carboxamide] | – | – | –
> 10000 | > 10000 | > 10000 | N#Cc1cnc(NC(=O)N2CCCc3cc(CO)c(C=O)nc32)cc1O[C@@H]1CCOC1 [Example 49, (R)-N-(5-cyano-4-((tetrahydrofuran-3-yl)oxy)pyridin-2-yl)-7-formyl-6-(hydroxymethyl)-3,4-dihydro-1,8-naphthyridine-1(2H)-carboxamide] | – | – | –
> 10000 | – | > 10000 | COCCNc1cc(NC(=O)N2CCCc3cc(C4CCOCC4)c(C=O)nc32)ncc1C#N [Example 249, N-(5-cyano-4-((2-methoxyethyl)amino)pyridin-2-yl)-7-formyl-6-(tetrahydro-2H-pyran-4-yl)-3,4-dihydro-1,8-naphthyridine-1(2H)-carboxamide] | 222 | – | –

Source: patent US9266883B2, “Ring-fused bicyclic pyridyl derivatives as FGFR4 inhibitors” (Novartis AG, priority 2013, dated 2016)
